Values of other authors, collected in US20010006974A1, “COMBINATION THERAPY FOR LYMPHOPROLIFERATIVE DISEASES” (priority 1999, published 2001).

What was measured:
[1] = system: refractory lymphomas; conditions: monotherapy; 5 mg/m^2 for 3 consecutive day every 3 weeks
[2] = system: refractory/relapsed B-CLL; conditions: refractory/relapsed B-CLL patients
[3] = system: cAMP; conditions: correlated with theophylline-induced apoptosis
[4] = system: bcl-2; conditions: correlated with theophylline-induced apoptosis
[5] = system: alkylator-refractory CLL

## OC[C@H]1O[C@@H](n2cnc3c2NC=NC[C@H]3O)C[C@@H]1O [pentostatin, 2′-deoxycoformycin]
[1]
  response rate: 32%
[2]
  response rate: 30%

## Cn1c(=O)c2[nH]cnc2n(C)c1=O [theophylline]
[3]
  intracellular level of cAMP: increased
[4]
  bcl-2 regulation: down-regulation
[5]
  activity as a single agent: no activity
